{"source": "patent US20170080049A1", "about": "“MEDICINE AGAINST GROWTH FAILURE INDUCED BY ADMINISTRATION OF STEROID” (DAIICHI SANKYO COMPANY, LIMITED, priority 2014, published 2017)", "key": {"[1]": {"tested_on": "steroid-induced growth failure, male Crlj:WI (Wistar) rat", "assay": "Simultaneous combined administration test of various steroids and CNP derivative (A) in rats (Example 5)", "assay_type": "in vivo", "settings": "for Body length at dissection / Body length, variation from preadministration value (Δ value) / Body weight, variation from preadministration value (Δ value) / Right femur length at dissection / Tail length at dissection / Tail length, variation from preadministration value (Δ value) / Body weight at dissection: 1 mL/kg s.c. once a day 28 days, + medium or + CNP derivative (A) 1 mg/kg, n=5; for Body weight at dissection: 4-week-old male Wistar rat", "procedure": "0.3 mg/mL solution of dexamethasone (dexamethasone injection “KS”, available from Kyoritsuseiyaku Corporation diluted with saline), prednisolone succinate suspended in 0.1% polysorbate-containing brine (available from Wako Pure Chemical Industries, Ltd., concentration of 5 mg/mL as prednisolone), or betamethasone dipropionate suspended in 0.1% polysorbate-containing brine (available from Wako Pure Chemical Industries, Ltd., concentration of 0.3 mg/mL as betamethasone) was administered to the hypoderm of the back of a 4-week-old male Crlj:WI (Wistar) rat (ten animals for each set of substances) in a volume of 1 mL/kg once a day for 28 days. No substance was administered to the control group (5 animals, Group 1). At the same time, for five of ten animals in each set (Group 2, Group 4, Group 6) a medium (0.03 mol/L acetate buffer (pH 4.0)/1% benzyl alcohol/10% sucrose) and for the remaining five animals (Group 3, Group 5, Group 7) the medium and a 1 mg/mL solution of CNP derivative (A) were administered in combination in the hypoderm of the back in a volume of 1 mL/kg once a day for 28 days. After measuring the body weight, the body length and the tail length under isoflurane anesthesia on the day after the final day of administration, blood was collected from the abdominal aorta and the animal was caused to die, the right femur was extracted and the femur length was measured."}, "[2]": {"tested_on": "dexamethasone-induced rat growth failure model", "assay": "Combined administration study of human-type CNP-53 or various CNP derivatives in dexamethasone-induced rat growth failure model (Example 3)", "assay_type": "in vivo", "settings": "for plasma cholesterol concentration and thymus weight vs single administration group of dexamethasone (in words): combined with dexamethasone, 28 days; for Plasma cholesterol concentration / thymus body weight ratio / thymus weight at dissection: dexamethasone 0.67 mg/mL pump alone or combined with 15 mg/mL pump of the CNP peptide, continuous s.c. 28 days, 5-week-old male Wistar rat, n=5", "procedure": "Osmotic pumps (MINI-OSMOTIC PUMP Model 2004, available from DURECT CORPORATION, flow rate: 0.25 μL/hr, for 28 days) were charged with 0.67 mg/mL solution of dexamethasone (dexamethasone injection “KS”, available from Kyoritsuseiyaku Corporation) and one osmotic pump was embedded in the hypoderm of the back of each 5-week-old male Crlj:WI (Wistar) rat (5 animals/group, Groups 2 to 6, a total of 25 animals). At the same time, one osmotic pump (the same as above) charged with a 15 mg/mL solution of CNP derivative (A) in Group 3, human-type CNP-53 in Group 4, CNP derivative (B) in Group 5 and CNP derivative (C) in Group 6 was embedded in the hypoderm of the back simultaneously. No substance was administered to the normal control group (Group 1, 5 animals). Then the animals were fed for 28 days, and transitions of the body weight, the body length and the tail length were measured. On the final day, the blood was collected from the abdominal aorta and the animals were caused to die under isoflurane anesthesia, and plasma was separated from the collected blood and the cholesterol concentration was determined by using a “LabAssay (trademark) cholesterol” (available from Wako Pure Chemical Industries, Ltd.). After collecting the blood and causing the animals to die, the right femur and thymus were extracted, and the length of the right femur and the weight of the thymus were measured."}}, "note": "Positions of bridges follow the written chain, without caps; N, C: chain ends. Residues, ends and D or L forms follow the SMILES beside them."}
{"smiles": "CCC(=O)OCC(=O)[C@@]1(OC(=O)CC)[C@@H](C)C[C@H]2[C@@H]3CCC4=CC(=O)C=C[C@]4(C)[C@@]3(F)[C@@H](O)C[C@@]21C", "note": "[Betamethasone, betamethasone dipropionate]", "values": [{"measurement": "Body length at dissection", "setting": "[1]; betamethasone 0.3 mg/mL", "result": "211 ± 2", "unit": "mm"}, {"measurement": "Body length, variation from preadministration value (Δ value)", "setting": "[1]; betamethasone 0.3 mg/mL", "result": "(59 ± 5) mm"}, {"measurement": "Body weight, variation from preadministration value (Δ value)", "setting": "[1]; betamethasone 0.3 mg/mL", "result": "(208 ± 10) g"}, {"measurement": "Right femur length at dissection", "setting": "[1]; betamethasone 0.3 mg/mL", "result": "33.9 ± 0.5", "unit": "mm"}, {"measurement": "Tail length at dissection", "setting": "[1]; betamethasone 0.3 mg/mL", "result": "213 ± 4", "unit": "mm"}, {"measurement": "Tail length, variation from preadministration value (Δ value)", "setting": "[1]; betamethasone 0.3 mg/mL", "result": "(82 ± 3) mm"}, {"measurement": "Body weight at dissection", "setting": "[1]; betamethasone dipropionate (0.3 mg/mL as betamethasone)", "result": "315 ± 11", "unit": "g"}, {"measurement": "growth failure in rats by repeated administration of the steroid for 28 days (in words)", "setting": "[1]; rat, in vivo, sc", "result": "induce growth failure"}]}
{"smiles": "CC[C@H](C)[C@@H]1NC(=O)[C@H](CCCNC(=N)N)NC(=O)[C@H](CC(=O)O)NC(=O)[C@H](CC(C)C)NC(=O)[C@H](CCCCN)NC(=O)[C@H](CC(C)C)NC(=O)CNC(=O)[C@H](Cc2ccccc2)NC(=O)[C@@H](NC(=O)CNC(=O)[C@H](CCCCN)NC(=O)[C@H](CO)NC(=O)[C@H](CC(C)C)NC(=O)CNC(=O)[C@H](CCCCN)NC(=O)[C@H](CCCCN)NC(=O)[C@H](CC(N)=O)NC(=O)[C@H](C)NC(=O)CNC(=O)[C@H](CCCCN)NC(=O)[C@H](Cc2ccc(O)cc2)NC(=O)[C@H](CCCCN)NC(=O)[C@H](CCCNC(=N)N)NC(=O)[C@H](C)NC(=O)[C@H](CC(N)=O)NC(=O)[C@@H]2CCCN2C(=O)[C@H](Cc2c[nH]cn2)NC(=O)[C@H](CCC(=O)O)NC(=O)[C@H](CCC(N)=O)NC(=O)CNC(=O)[C@@H]2CCCN2)CSSC[C@@H](C(=O)O)NC(=O)CNC(=O)[C@H](CC(C)C)NC(=O)CNC(=O)[C@H](CO)NC(=O)[C@H](CCSC)NC(=O)[C@H](CO)NC(=O)CNC1=O", "note": "[CNP derivative (B), Pro-Gly-CNP-37]", "values": [{"measurement": "plasma cholesterol concentration and thymus weight vs single administration group of dexamethasone (in words)", "setting": "[2]", "result": "a clear difference was not observed"}, {"measurement": "Plasma cholesterol concentration", "setting": "[2]", "result": "64.4 ± 0.8 ^NS mg/dL"}, {"measurement": "thymus body weight ratio", "setting": "[2]", "result": "[0.14 ± 0.04%*]"}, {"measurement": "thymus weight at dissection", "setting": "[2]", "result": "0.42 ± 0.14", "unit": "g"}]}
{"smiles": "CC[C@H](C)[C@@H]1NC(=O)[C@H](CCCNC(=N)N)NC(=O)[C@H](CC(=O)O)NC(=O)[C@H](CC(C)C)NC(=O)[C@H](CCCCN)NC(=O)[C@H](CC(C)C)NC(=O)CNC(=O)[C@H](Cc2ccccc2)NC(=O)[C@@H](NC(=O)CNC(=O)[C@H](CCCCN)NC(=O)[C@H](CO)NC(=O)[C@H](CC(C)C)NC(=O)CN)CSSC[C@@H](C(=O)N[C@H](C(=O)N[C@@H](CCC(N)=O)C(=O)N[C@@H](CCC(N)=O)C(=O)N[C@@H](CCCNC(=N)N)C(=O)N[C@@H](CCCCN)C(=O)N[C@@H](CCC(=O)O)C(=O)N[C@@H](CO)C(=O)N[C@@H](CCCCN)C(=O)N[C@@H](CCCCN)C(=O)N2CCC[C@H]2C(=O)N2CCC[C@H]2C(=O)N[C@@H](C)C(=O)N[C@@H](CCCCN)C(=O)N[C@@H](CC(C)C)C(=O)N[C@@H](CCC(N)=O)C(=O)N2CCC[C@H]2C(=O)N[C@@H](CCCNC(=N)N)C(=O)O)C(C)C)NC(=O)CNC(=O)[C@H](CC(C)C)NC(=O)CNC(=O)[C@H](CO)NC(=O)[C@H](CCSC)NC(=O)[C@H](CO)NC(=O)CNC1=O", "note": "[CNP derivative (C), CNP (1-22) Ghrelin (12-28, SEQ ID NO: 8)] (H-GLSKGCFGLKLDRIGSMSGLGCVQQRKESKKPPAKLQPR-OH; disulfide 6-22)", "values": [{"measurement": "plasma cholesterol concentration and thymus weight vs single administration group of dexamethasone (in words)", "setting": "[2]", "result": "a clear difference was not observed"}, {"measurement": "Plasma cholesterol concentration", "setting": "[2]", "result": "59.2 ± 7.4 ^NS mg/dL"}, {"measurement": "thymus body weight ratio", "setting": "[2]", "result": "[0.11 ± 0.02% ^NS]"}, {"measurement": "thymus weight at dissection", "setting": "[2]", "result": "0.35 ± 0.06", "unit": "g"}]}
{"smiles": "C[C@]12C=CC(=O)C=C1CC[C@@H]1[C@@H]2[C@@H](O)C[C@@]2(C)[C@H]1CC[C@]2(O)C(=O)COC(=O)CCC(=O)O", "note": "[prednisolone succinate]", "values": [{"measurement": "Body length at dissection", "setting": "[1]; prednisolone 5 mg/mL", "result": "209 ± 4", "unit": "mm"}, {"measurement": "Body length, variation from preadministration value (Δ value)", "setting": "[1]; prednisolone 5 mg/mL", "result": "(58 ± 4) mm"}, {"measurement": "Body weight, variation from preadministration value (Δ value)", "setting": "[1]; prednisolone 5 mg/mL", "result": "(191 ± 14) g"}, {"measurement": "Right femur length at dissection", "setting": "[1]; prednisolone 5 mg/mL", "result": "33.3 ± 0.3", "unit": "mm"}, {"measurement": "Tail length at dissection", "setting": "[1]; prednisolone 5 mg/mL", "result": "206 ± 6", "unit": "mm"}, {"measurement": "Tail length, variation from preadministration value (Δ value)", "setting": "[1]; prednisolone 5 mg/mL", "result": "(79 ± 9) mm"}, {"measurement": "Body weight at dissection", "setting": "[1]; prednisolone succinate (5 mg/mL as prednisolone)", "result": "298 ± 14", "unit": "g"}, {"measurement": "growth failure in rats by repeated administration of the steroid for 28 days (in words)", "setting": "[1]; s.c. once a day 28 days, body weight gain, body, tail and femur length, p<0.05 or 0.01", "result": "induce growth failure"}]}
